In patent US20260226042A1, “C[…] H[…] PROCESSES FOR PREPARING THE SAME” (OLON S.P.A., priority 2023, published 2026):
Counter-ions that a name gives are not always drawn.

Test: Dynamic Vapor Sorption (DVS) Isotherm of Aceclidine HCl (hydration of anhydrous to hemihydrate form)
Assay type: physicochemical
Description: The conversion from anhydrous to hemihydrate form of Aceclidine HCl (4 mg) was analyzed by a Dynamic Vapor Sorption (DVS) Isotherm.

Compound	weight when environmental humidity content decreased (DVS, FIG. 4)	reversibility of conversion anhydrous to hemihydrate form (DVS, with decreasing relative humidity, FIG. 4)	hygroscopicity (compared to the corresponding anhydrous form)	conversion into other forms without controlled conditions (handling without humidity-controlled conditions (e.g. glove box))	weight change at which the hemihydrate form formation is obtained (DVS isotherm, weight change % / relative humidity %, 4 mg sample, FIG. 4)
CC(=O)OC1CN2CCC1CC2 (centres unmarked) [Aceclidine HCl hemihydrate]	remained stable	irreversible	low hygroscopicity	not subjected to any conversion	
CC(=O)OC1CN2CCC1CC2 (centres unmarked) [Anhydrous Aceclidine HCl, anhydrous Aceclidine HCl, reference compound]					about 4%
